# Experimental data taken from patent publication US11273217B2, “Cancer treatment composition combining anti-CD26 antibody and other anticancer agent” (Y's AC Co., Ltd., priority 2015, dated 2022).
# System: JMN cells
# Assay: MTT cell growth assay, JMN
# Type: cell-based
# Settings: gemcitabine 3×10^−10, 10^−9, or 3×10^−8 M and YS110 1, 3, or 10 μg/ml; day 2
# Protocol: Gemcitabine was studied for its effect on the growth of a mesothelioma cell line. A mesothelioma cell line MESO1, JMN, H2452, or H226 (2×10^3 cells/well) was inoculated to a 96-well plate. One hour later, gemcitabine (10^−9, 10^−8, 10^−7, 10^−6, 10^−5, or 10^−4 M) was added thereto (N=6). 2 days later, MTT assay was conducted. Significant difference was tested by two-tailed t-test (vs Cont).
# JMN cells (2×10^3 cells/well) were inoculated to a 96-well plate. One hour later, gemcitabine (0, 3×10^−10, 10^−9, or 3×10^−8 M) and YS110 (0, 1, 3, or 10 μg/ml) were added thereto in combination. At day 2, MTT assay was conducted. Significant difference was tested by two-tailed t-test (vs Cont). Next, interaction in concomitant use of medications was studied (n=6). The interaction between YS110 and gemcitabine used concomitantly was analyzed by two-way ANOVA.
# MESO1, JMN, H2452 or H226 cells (2×10^3 cells/well were inoculated to a 96-well plate. One hour later, 3×10^−8 M or 10^−7 M gemcitabine was added thereto by concomitant use with the combination of cisplatin (0, 0.1, 0.3, or 1 μM) and pemetrexed (0, 0.03, 0.1, or 0.3 μM) (n=6). At day 2, MTT assay was conducted.
# The growth inhibitory effects of cisplatin (10^−9 to 10^−4 M) and pemetrexed (10^−9 to 10^−4 M) were compared using the MESO1 and JMN cell lines.
# The growth inhibitory effect of gemcitabine (10^−9 to 10^−4 M) was compared using MESO1, H2452, JMN, and H226 cell lines.
substance,measurement,value
YS110: humanized anti-CD26 antibody designed based on anti-CD26 mouse antibody 14D10; SEQ ID NO: 17 and 18,effect of YS110 on the growth inhibitory effect of gemcitabine,potentiated
